“And” between values parts separate entries of the source, which are not always exact repeats. Identical values can stand only once. After the bases stand the sugars from the 5' end (letter, count) and the backbone: PS all phosphorothioate, else s phosphorothioate and o phosphodiester by linkage. Methylation of C is not given here. k = constrained ethyl (cEt); d = 2'-deoxy (DNA)

The target in the data set is MALAT1. The conditions noted are these: ASO, A431, 0.005 µM.
As to GGACTTGGCAGTCTGC (sugars k3 d10 k3, PS), the target mRNA inhibition was 27%.

Turning to GCCTTAAAGTTACATT (sugars k3 d10 k3, PS), the target mRNA inhibition is 10%.

For the sequence TGCCACAGGAAGGCTC (sugars k3 d10 k3, PS), the target mRNA inhibition was -10%. In the case of AGTCCCTGAAGGTGTT (sugars k3 d10 k3, PS) it was 28%. In the case of TCTAAAAGCATTGCCC (sugars k3 d10 k3, PS) it was 29%.

Take TCCCAACCGTAACAGG (sugars k3 d10 k3, PS): the target mRNA inhibition came to 2%.

With CCAACTAAGCGAATGG (sugars k3 d10 k3, PS), the target mRNA inhibition worked out at 18%. On to CTAACAGCACATCATG (sugars k3 d10 k3, PS), for which the target mRNA inhibition is 32%. For the sequence GTAACTACCAGCCATT (sugars k3 d10 k3, PS), the target mRNA inhibition worked out at 45%. The value for TATAGACGGAGAACAA (sugars k3 d10 k3, PS) was 30%. In the case of TTTTAGTCACTGGATA (sugars k3 d10 k3, PS) it was 45%. The value for CGACTTGCTCCCAAGA (sugars k3 d10 k3, PS) was 22%; that for TTCCGCTCAAATCCTG (sugars k3 d10 k3, PS) was 35%; that for CTTGACAAGCAATTAA (sugars k3 d10 k3, PS) was 30%.

As for AACAACTCGCATCACC (sugars k3 d10 k3, PS), the target mRNA inhibition came to 17%. The value for GTAACTTTAAATTGGT (sugars k3 d10 k3, PS) was 55% and 63%.

In the case of CCAAATTAATGCACTG (sugars k3 d10 k3, PS), the target mRNA inhibition was determined as 13%. In the case of ATTAATGCACTGGTAC (sugars k3 d10 k3, PS) it was 16%; in that of TCAGACCTTCTGAACC (sugars k3 d10 k3, PS), -6%. In the case of ACTTTAAATTGGTAGC (sugars k3 d10 k3, PS) it was 28%; in that of GTATTTATAGACGGAG (sugars k3 d10 k3, PS), 0%; in that of CAGAAGTCTCGGGCTG (sugars k3 d10 k3, PS), 19%. Take TTACCAACCACTCGCT (sugars k3 d10 k3, PS): the target mRNA inhibition came to 2%. In the case of GCATTTCCCATAATTG (sugars k3 d10 k3, PS) it was 46%.

Take AACCACAACAATTTAG (sugars k3 d10 k3, PS): the target mRNA inhibition worked out at 16%. As for CCTCAGTACGAAACTC (sugars k3 d10 k3, PS), the target mRNA inhibition turned out to be 16%. In the case of CCACTTGCCAGTTTAA (sugars k3 d10 k3, PS) it was 29%; in that of CTGTTACACCTTGAGT (sugars k3 d10 k3, PS), 33%; in that of CGAATTCAGGGTGAGG (sugars k3 d10 k3, PS), 68% and 87%. With TCGCAGACAAAGTTTC (sugars k3 d10 k3, PS), the target mRNA inhibition came out at 31%. The value for CACTCATATGCAATTC (sugars k3 d10 k3, PS) was 37%; that for CCCACCCAGCATTACA (sugars k3 d10 k3, PS) was 18%; that for TAGTTAATGTCAGCCC (sugars k3 d10 k3, PS) was 41%. With ACGGCCCGCACGGAAA (sugars k3 d10 k3, PS), the target mRNA inhibition came out at 16%. The value for TCAAGGCACTGATCAC (sugars k3 d10 k3, PS) was 49%. In the case of TTACAGAAGTCTCGGG (sugars k3 d10 k3, PS) it was 11%; in that of ACTTATCTGTTAACAG (sugars k3 d10 k3, PS), 25%. In the case of CTGAAGTTCTCCTGAG (sugars k3 d10 k3, PS) it was 38%. On to TCCAGGACTTGGCAGT (sugars k3 d10 k3, PS), for which the target mRNA inhibition was 23%. Take TCCAAGAACTAGCACC (sugars k3 d10 k3, PS): the target mRNA inhibition was -5%.

TTACATGTTCCCACCC (sugars k3 d10 k3, PS): the target mRNA inhibition is 19%.

In the case of CCCAGCATTACAGTTC (sugars k3 d10 k3, PS), the target mRNA inhibition turned out to be 10%. The value for GCCAAGCACTCATATG (sugars k3 d10 k3, PS) was 24%; that for CGCCTTCCCGTACTTC (sugars k3 d10 k3, PS) was 57%.

Regarding AGTAACTACCAGCCAT (sugars k3 d10 k3, PS), the target mRNA inhibition amounted to 45%. The value for CAAGCTGAACTATCAC (sugars k3 d10 k3, PS) was 27%; that for TCCACCCCCACGCCAA (sugars k3 d10 k3, PS) was -9%; that for TCTTGAATTACTTCCG (sugars k3 d10 k3, PS) was 76% and 55%. Regarding TGTTAAGAGAAGCCCA (sugars k3 d10 k3, PS), the target mRNA inhibition came out at 2%. CCAACTGCTTGCAGTC (sugars k3 d10 k3, PS): the target mRNA inhibition was 25%. The value for CAACACTCAGCCTTTA (sugars k3 d10 k3, PS) was -1%. Turning to TAAATTGATGGGCTTT (sugars k3 d10 k3, PS), the target mRNA inhibition is 37%. In the case of ACCTAAACCCACCCCA (sugars k3 d10 k3, PS) it was -1%; in that of TGAAGTCAAGACAACT (sugars k3 d10 k3, PS), 1%; in that of CTCAATTTGGCTATCA (sugars k3 d10 k3, PS), 60% and 80%.

TAAGATGCTAGCTTGG (sugars k3 d10 k3, PS): the target mRNA inhibition is 25%. In the case of CCTCAATGCCTACCGC (sugars k3 d10 k3, PS) it was 17%. As to GATAAAAGCAGCTCCA (sugars k3 d10 k3, PS), the target mRNA inhibition turned out to be 30%. The value for ATGCCCACAAGGATCC (sugars k3 d10 k3, PS) was 33%; that for CCTACCACTCCCAATT (sugars k3 d10 k3, PS) was 21%; that for CACCGCTTGAGATTTG (sugars k3 d10 k3, PS) was 47% and 30% and 26%. The value for TCGCATCACCGGAATT (sugars k3 d10 k3, PS) was 4%. Turning to GTTTAAGTCACCTTCA (sugars k3 d10 k3, PS), the target mRNA inhibition is 63% and 38%.

Take TGAGTGGTTTTATCTA (sugars k3 d10 k3, PS): the target mRNA inhibition was found to be 7%. For the sequence GTTAAACTTATCTGTT (sugars k3 d10 k3, PS), the target mRNA inhibition is 41%.

Turning to CCTCACAAAACCCCCG (sugars k3 d10 k3, PS), the target mRNA inhibition was -13%. Regarding TTATGGATCATGCCCA (sugars k3 d10 k3, PS), the target mRNA inhibition worked out at 28%.

AAAGATCGCCTTCAAA (sugars k3 d10 k3, PS): the target mRNA inhibition was determined as 32%. On to CTACCTTCATCACCAA (sugars k3 d10 k3, PS), for which the target mRNA inhibition is 2%.

As to TAACAGCACATCATGC (sugars k3 d10 k3, PS), the target mRNA inhibition is 21%. In the case of ACCACTCGCTTTCCCT (sugars k3 d10 k3, PS) it was 35%; in that of ATTATGGATCATGCCC (sugars k3 d10 k3, PS), 17%; in that of GGTACTTCAAGCATTC (sugars k3 d10 k3, PS), 44%.

Regarding TTGAACCCCGTCCTGG (sugars k3 d10 k3, PS), the target mRNA inhibition was 12%. In the case of CAAGTAAGCCCCACCC (sugars k3 d10 k3, PS) it was 26%; in that of CAAAACGAATTCAGGG (sugars k3 d10 k3, PS), 26%; in that of AGGCAAACGAAACATT (sugars k3 d10 k3, PS), 35%. In the case of GAAAACTCCCCCCCGC (sugars k3 d10 k3, PS), the target mRNA inhibition is -4%.

For ATCTGCGGTTTCCTCA (sugars k3 d10 k3, PS), the target mRNA inhibition amounted to 58%. GACAAGATTCATGAGT (sugars k3 d10 k3, PS): the target mRNA inhibition stood at 47%. As to CAGCGGGATCAGAACA (sugars k3 d10 k3, PS), the target mRNA inhibition amounted to 23%. Take AAATCCTGATCTGGTC (sugars k3 d10 k3, PS): the target mRNA inhibition amounted to 27%.

In the case of GCTTACACACAACTGA (sugars k3 d10 k3, PS), the target mRNA inhibition worked out at 50%. With TGCCAACTTGGAAGTT (sugars k3 d10 k3, PS), the target mRNA inhibition was determined as 32%. Consider TCCTAGCTTCACCACC (sugars k3 d10 k3, PS), for which the target mRNA inhibition was determined as 44%. For the sequence ACCTTCATCACCAAAT (sugars k3 d10 k3, PS), the target mRNA inhibition came to 22%. As to CAATATTTGCCCCTCC (sugars k3 d10 k3, PS), the target mRNA inhibition worked out at 30%.

Turning to TTGTTCGAGAAATCGG (sugars k3 d10 k3, PS), the target mRNA inhibition worked out at 5%. In the case of GTCCTAGCTTCATCAA (sugars k3 d10 k3, PS) it was 18%; in that of TCTAATAGCAGCGGGA (sugars k3 d10 k3, PS), 16%. The value for AGATATTGTGCTGTTA (sugars k3 d10 k3, PS) was 17%. The value for AGCAACTCTTCTGATA (sugars k3 d10 k3, PS) was 30%; that for CCTATAAGGACAGCTA (sugars k3 d10 k3, PS) was 15%. Take AGTCAGGGACACACCC (sugars k3 d10 k3, PS): the target mRNA inhibition was -16%. The value for TAGAGCTACTTAGCTG (sugars k3 d10 k3, PS) was 18%; that for CCATAATTGTAGTTAA (sugars k3 d10 k3, PS) was 7%. As for CACAAGGCAAATCGCC (sugars k3 d10 k3, PS), the target mRNA inhibition was 20%. In the case of AGACTAAAGGCTTCAG (sugars k3 d10 k3, PS) it was 12%; in that of GATAACGAAGAGATAC (sugars k3 d10 k3, PS), 19%.

The record behind these values is the OligoGym collection.
